Drawing on patent publication US6727264B1 (Synaptic Pharmaceutical Corporation, priority 2001, dated 2004), this text covers Ki for 28 compounds.

Chain of rat MCH-1 (P97639 whole entry): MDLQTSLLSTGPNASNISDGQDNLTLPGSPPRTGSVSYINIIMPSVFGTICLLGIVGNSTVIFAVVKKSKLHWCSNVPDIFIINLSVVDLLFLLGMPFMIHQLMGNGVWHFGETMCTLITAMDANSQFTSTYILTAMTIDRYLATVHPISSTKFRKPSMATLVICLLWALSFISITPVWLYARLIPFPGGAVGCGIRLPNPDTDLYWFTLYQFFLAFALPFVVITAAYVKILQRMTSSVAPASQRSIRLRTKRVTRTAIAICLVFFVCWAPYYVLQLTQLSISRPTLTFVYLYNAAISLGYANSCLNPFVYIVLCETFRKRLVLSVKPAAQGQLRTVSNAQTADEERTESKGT

This test has as its target rat MCH-1 (Rattus norvegicus, UniProt P97639). As to the kind of experiment: Radioligand binding assay at cloned rat MCH1 receptor ([3H] Compound A). As to conditions: cloned rat MCH1 receptor; 0.08 nM [3H] Compound A; Peakr293 cell membranes; read-out: Ki (nM) rMCH1. Also noted: host or cells: Peak rapid 293 (Peakr293) cells, transient calcium phosphate transfection, membranes.
In the case of `CC(C)C(=O)Nc1cccc(C2CCN(CCCNC(=O)Nc3ccc(F)cc3)CC2)c1` [Example 613], the Ki turned out to be 34.9 nM. For `CC(C)C(=O)Nc1cccc(C2CCN(CCCNC(=O)Nc3ccc(Cl)c(Cl)c3)CC2)c1` [Example 614] the value was 84.8 nM.

As for `Cc1ccccc1NC(=S)NCCCN1CCC(c2cccc(NC(=O)C(C)C)c2)CC1` [Example 615], the Ki was 210 nM. To `CC(C)C(=O)Nc1cccc(C2CCN(CCCNC(=O)NCc3ccccc3)CC2)c1` [Example 616] belongs 406 nM; to `CCOc1ccc(NC(=O)NCCCN2CCC(c3cccc(NC(=O)C(C)C)c3)CC2)cc1` [Example 617], 609 nM; to `CC(C)C(=O)Nc1cccc(C2CCN(CCCNC(=O)Nc3ccccc3)CC2)c1` [Example 618], 400 nM.

In the case of `CSc1ccccc1NC(=O)NCCCN1CCC(c2cccc(NC(=O)C(C)C)c2)CC1` [Example 619], the Ki turned out to be 178 nM. To `CC(C)C(=O)Nc1cccc(C2CCN(CCCNC(=S)NC(C)(C)C)CC2)c1` [Example 620] belongs 223 nM; to `CC(C)C(=O)Nc1cccc(C2CCN(CCCNC(=O)Nc3ccc(Oc4ccccc4)cc3)CC2)c1` [Example 621], 205 nM; to `CC(=O)Nc1cccc(C2CCN(CCCNC(=O)C3=C(C)NC(=O)CC3c3ccc(F)cc3F)CC2)c1` (stereo not shown) [Example 622], 162 nM. For `CC(=O)Nc1cccc(C2CCN(CCCNC(=O)C3=C(C)NC(=O)CC3c3ccc(F)c(F)c3)CC2)c1` (stereo not shown) [Example 623] the value was 23.1 nM. For `CC(C)C(=O)Nc1cccc(C2CCN(CCCCCCNC(=O)c3cnn(-c4ccc([N+](=O)[O-])cc4)c3C(F)(F)F)CC2)c1` [Example 624] the value was 47.8 nM. Take `CC(C)C(=O)Nc1cccc(C2CCN(CCCCCCNC(=O)C(c3ccccc3)c3ccccc3)CC2)c1` [Example 625]: the Ki was found to be 29.5 nM. To `CC(C)C(=O)Nc1cccc(C2CCN(CCCCCCNC(=O)c3ccc(Oc4cc(Cl)cc(Cl)c4)o3)CC2)c1` [Example 626] belongs 20.9 nM; to `CC(C)C(=O)Nc1cccc(C2CCN(CCCCCCNC(=O)c3cccnc3Oc3ccccc3)CC2)c1` [Example 627], 109 nM.

As for `CC(C)C(=O)Nc1cccc(C2CCN(CCCCCCNC(=O)c3ccc4ccccc4c3)CC2)c1` [Example 628], the Ki was determined as 161 nM. For `CC(C)C(=O)Nc1cccc(C2CCN(CCCCCCNC(=O)c3cc(C(C)(C)C)nn3Cc3ccccc3)CC2)c1` [Example 629] the value was 42.9 nM; for `CC(C)C(=O)Nc1cccc(C2CCN(CCCCCCNC(=O)c3scc(S(=O)(=O)C(C)C)c3Cl)CC2)c1` [Example 630], 202 nM; for `CC(C)C(=O)Nc1cccc(C2CCN(CCCCCCNC(=O)Nc3ccccc3)CC2)c1` [Example 631], 259 nM. For `CC(C)C(=O)Nc1cccc(C2CCN(CCCCCCNC(=O)Nc3ccc(Cl)cc3Cl)CC2)c1` [Example 632] the value was 76.6 nM; for `CCCc1c(C(=O)NCCCCCCN2CCC(c3cccc(NC(=O)C(C)C)c3)CC2)cnn1-c1ccccc1` [Example 633], 108 nM; for `CC(C)C(=O)Nc1cccc(C2CCN(CCCCCCNC(=O)Nc3cccc4ccccc34)CC2)c1` [Example 634], 116 nM.

As to `CC(C)C(=O)Nc1cccc(C2CCN(CCCCCCNC(=O)Nc3ccc(-c4ccccc4)cc3)CC2)c1` [Example 635], the inhibition constant Ki was 73.6 nM. To `CC(C)C(=O)Nc1cccc(C2CCN(CCCCCCNC(=O)Nc3ccc4ccccc4c3)CC2)c1` [Example 636] belongs 40.8 nM; to `COc1ccc(S(=O)(=O)NCCCN2CCC(c3cccc(NC(=O)C(C)C)c3)CC2)cc1OC` [Example 637], 106 nM; to `Cc1onc(-c2ccccc2)c1C(=O)NCCCN1CCC(c2cccc(NC(=O)C(C)C)c2)CC1` [Example 638], 29.8 nM. To `CC(C)C(=O)Nc1cccc(C2CCN(CCCNC(=O)Cc3ccc(F)cc3)CC2)c1` [Example 639] belongs 36.3 nM. To `CC(C)C(=O)Nc1cccc(C2CCN(CCCNS(=O)(=O)c3ccc(Cl)c([N+](=O)[O-])c3)CC2)c1` [Example 640] belongs 11.2 nM.

The term Ki denotes a dissociation constant, usually derived from enzyme kinetics or from competition with a known ligand.
